Measurements from BindingDB's records for patent US11680056 (Xinthera, 2023).
Values joined by “and” are separate entries in the source; they are usually repeats but may differ in a detail not shown here. Equal entries are not always repeated.

The molecules below were run against T1, MAP kinase-activated protein kinase 2 [46-400] (Homo sapiens, UniProt P49137) (assay: Biochemical Assay).
T1 construct: 46-400
Method: This study evaluates the inhibitory potency of invention compound on p38/MK2 pathway vs p38/PRAK pathway. More specially the compound concentration (IC50) was determined that inhibited half of the maximal activation of MK2 or PRAK by p38. MK2 activation study was set up without or with a serial of 10-point 1:3 dilution of invention compound at top dose of […], and PRAK activation study was set up without or with a serial of 10-point 1:3 dilution of invention compound at top dose of 300 μM. The MK2 and PRAK activity were determined by the phosphorylation level of HSP27 peptide conjugated with FITC. […] After 2 h incubation of the reaction mixture with various concentration of invention compound (200 nL), 60 μL 1×IMAP solution Mixture (Molecular Devices, Cat R8127) was added to the reaction mixture and incubated for another half hour. The signal was then read by Synergy Neo2 Multi-Mode Microplate Reader with filter setting (Ex/Em=485 nm/FITC FP-P pol 528 nm & FITC FP-S pol 528 nm). The signal was then normalized to vehicle control and fitted in Xfit to generate IC50. The selectivity of MK2 over PRAK was calculated by the formular Selectivity=IC50 of PRAK/IC50 of MK2.

T1 sequence (P49137 46-400): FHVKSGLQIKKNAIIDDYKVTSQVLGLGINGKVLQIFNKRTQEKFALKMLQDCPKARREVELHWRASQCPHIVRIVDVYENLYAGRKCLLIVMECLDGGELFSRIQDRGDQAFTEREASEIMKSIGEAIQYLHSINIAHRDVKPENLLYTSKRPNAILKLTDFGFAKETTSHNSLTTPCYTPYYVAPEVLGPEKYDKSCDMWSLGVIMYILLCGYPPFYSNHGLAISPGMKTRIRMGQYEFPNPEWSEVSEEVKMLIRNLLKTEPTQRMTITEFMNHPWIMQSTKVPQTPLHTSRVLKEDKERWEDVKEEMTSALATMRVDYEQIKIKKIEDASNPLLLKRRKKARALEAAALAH

Row | Structure (SMILES) | IC50
1 | Cc1cnc(-n2nc(C(C)(C)O)cc2C2CC2)cc1-n1c(C)cc(OCc2ncc(F)cc2F)c(Cl)c1=O [US11680056, Example 20A] | 2000 nM and > 10000 nM
2 | Cc1cnnc(COc2cc(C)n(-c3cc(-c4ccnc(C(C)(C)O)n4)ncc3C)c(=O)c2Cl)c1 [US11680056, Example 28A] | > 10000 nM
3 | Cc1nn(-c2ccnc(C(C)(C)O)n2)cc1-n1c(C)cc(OCc2ncc(F)cc2F)c(Cl)c1=O [US11680056, Example 30] | 631 nM
